Data as given in paper PMC6517080 (Chembiochem : a European journal of chemical biology, 2018).
pKd: −log10 of the molar value.

Target: antithrombin (AT) (Homo sapiens, UniProt P01008)
Assay: ITC
Assay type: binding

antithrombin (AT), sequence (P01008 33-464): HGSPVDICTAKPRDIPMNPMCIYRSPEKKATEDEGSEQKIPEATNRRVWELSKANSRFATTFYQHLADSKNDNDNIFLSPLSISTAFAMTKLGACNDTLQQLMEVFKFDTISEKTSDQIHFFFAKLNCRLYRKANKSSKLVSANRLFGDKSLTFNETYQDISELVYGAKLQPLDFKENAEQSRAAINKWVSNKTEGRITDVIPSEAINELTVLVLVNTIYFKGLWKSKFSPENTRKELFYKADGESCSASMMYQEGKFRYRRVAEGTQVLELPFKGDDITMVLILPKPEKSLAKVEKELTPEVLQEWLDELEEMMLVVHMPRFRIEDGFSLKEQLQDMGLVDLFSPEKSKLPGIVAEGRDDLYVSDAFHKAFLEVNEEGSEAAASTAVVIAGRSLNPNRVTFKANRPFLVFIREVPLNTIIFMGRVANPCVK

Compound | pKd
O=C(O)[C@H]1O[C@@H](Oc2ccc([N+](=O)[O-])cc2)[C@H](O)[C@@H](O)[C@@H]1O[C@H]1O[C@H](COS(=O)(=O)O)[C@@H](O[C@@H]2O[C@@H](C(=O)O)[C@@H](O[C@H]3O[C@H](COS(=O)(=O)O)[C@@H](O[C@@H]4O[C@H](C(=O)O)[C@@H](O[C@H]5O[C@H](COS(=O)(=O)O)[C@@H](O)[C@H](O)[C@H]5NS(=O)(=O)O)[C@H](O)[C@H]4O)[C@H](OS(=O)(=O)O)[C@H]3NS(=O)(=O)O)[C@H](O)[C@H]2OS(=O)(=O)O)[C@H](O)[C@H]1NS(=O)(=O)O [hexa-4] | 6.26
O=C(O)[C@H]1O[C@@H](Oc2ccc([N+](=O)[O-])cc2)[C@H](O)[C@@H](O)[C@@H]1O[C@H]1O[C@H](COS(=O)(=O)O)[C@@H](O[C@@H]2O[C@@H](C(=O)O)[C@@H](O[C@H]3O[C@H](COS(=O)(=O)O)[C@@H](O[C@@H]4O[C@H](C(=O)O)[C@@H](O[C@H]5O[C@H](COS(=O)(=O)O)[C@@H](O)[C@H](O)[C@H]5NS(=O)(=O)O)[C@H](O)[C@H]4O)[C@H](OS(=O)(=O)O)[C@H]3NS(=O)(=O)O)[C@H](O)[C@H]2O)[C@H](O)[C@H]1NS(=O)(=O)O [hexa-8] | 5.89
